# Measured values reported in patent US20230146675A1, “PYRIMIDO[5,4-d]PYRIMIDINE DERIVATIVES AS ENT INHIBITORS FOR THE TREATMENT OF CANCERS, AND COMBINATION THEREOF WITH ADENOSINE RECEPTOR ANTAGONISTS” (ITEOS BELGIUM SA, priority 2020, published 2023).
# Target: T1, human ENT1 (Homo sapiens, UniProt Q99808)
# T1 sequence (Q99808 1-456): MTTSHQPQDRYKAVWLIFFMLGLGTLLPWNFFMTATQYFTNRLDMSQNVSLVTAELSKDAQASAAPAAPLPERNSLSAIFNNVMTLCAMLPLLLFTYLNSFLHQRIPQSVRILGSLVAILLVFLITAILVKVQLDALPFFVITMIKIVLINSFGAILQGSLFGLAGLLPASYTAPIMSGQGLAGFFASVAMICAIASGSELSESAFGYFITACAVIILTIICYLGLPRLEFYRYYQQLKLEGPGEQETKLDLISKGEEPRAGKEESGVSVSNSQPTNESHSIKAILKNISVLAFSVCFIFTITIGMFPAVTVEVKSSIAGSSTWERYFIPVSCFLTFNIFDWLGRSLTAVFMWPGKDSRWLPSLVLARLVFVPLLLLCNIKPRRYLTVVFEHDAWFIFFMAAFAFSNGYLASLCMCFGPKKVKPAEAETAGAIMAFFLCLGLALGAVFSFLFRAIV
# Assay: ENT1 binding assay (competition with Sahenta-DY647 on JAR cells)
# Set-up: JAR cells expressing ENT1 were bought from ATCC; host or cells: JAR cells
# Settings: binned IC50
# Procedure, shortened: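 JAR cells were incubated with test compounds and the fluorescent ligand Sahenta-DY647 in competition. Plates were washed twice by centrifugation (4 min, 400 rcf, 4 °C). Binding potency was derived from the final fluorescence.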
row,SMILES,IC50 [nM]
1,"COCCN(CCOC)c1nc(N2CCN(C)C(=O)C2)c2nc(N(CCOC)CCOC)nc(NCc3cccc(F)c3)c2n1 [Compound 207, 4-(2,6-bis(bis(2-methoxyethyl)amino)-8-((3-fluorobenzyl)amino)pyrimido[5,4-d]pyrimidin-4-yl)-1-methylpiperazin-2-one]",< 100
2,"COCCN(CCOC)c1nc(N2CCN(C)C(=O)C2)c2nc(N(CCOC)CCOC)nc(NCc3cccc(Cl)c3)c2n1 [Compound 208, 4-(2,6-bis(bis(2-methoxyethyl)amino)-8-((3-chlorobenzyl)amino)pyrimido[5,4-d]pyrimidin-4-yl)-1-methylpiperazin-2-one]",< 100
3,"COCCN(CCOC)c1nc(N2CCN(C)C(=O)C2)c2nc(N(CCOC)CCOC)nc(NCc3cccc(OC)c3)c2n1 [Compound 209, 4-(2,6-bis(bis(2-methoxyethyl)amino)-8-((3-methoxybenzyl)amino)pyrimido[5,4-d]pyrimidin-4-yl)-1-methylpiperazin-2-one]",< 100
4,"COCCN(CCOC)c1nc(N2CCN(C)C(=O)C2)c2nc(N(CCOC)CCOC)nc(NCc3cccc(OC(F)(F)F)c3)c2n1 [Compound 210, 4-(2,6-bis(bis(2-methoxyethyl)amino)-8-((3-(trifluoromethoxy)benzyl)amino)pyrimido[5,4-d]pyrimidin-4-yl)-1-methylpiperazin-2-one]",< 100
5,"COCCN(CCOC)c1nc(N2CCN(C)C(=O)C2)c2nc(N(CCOC)CCOC)nc(NCc3ccc(F)c(C#N)c3)c2n1 [Compound 211, 5-(((2,6-bis(bis(2-methoxyethyl)amino)-8-(4-methyl-3-oxopiperazin-1-yl)pyrimido[5,4-d]pyrimidin-4-yl)amino)methyl)-2-fluorobenzonitrile]",< 100
6,"COCCN(CCOC)c1nc(N2CCN(C)C(=O)C2)c2nc(N(CCOC)CCOC)nc(NCc3cccc(S(C)(=O)=O)c3)c2n1 [Compound 212, 4-(2,6-bis(bis(2-methoxyethyl)amino)-8-((3-(methylsulfonyl)benzyl)amino)pyrimido[5,4-d]pyrimidin-4-yl)-1-methylpiperazin-2-one]",500 to 1000
7,"COCCN(CCOC)c1nc(N2CCN(C)C(=O)C2)c2nc(N(CCOC)CCOC)nc(NCc3ccc(F)c(F)c3)c2n1 [Compound 213, 4-(2,6-bis(bis(2-methoxyethyl)amino)-8-((3,4-difluorobenzyl)amino)pyrimido[5,4-d]pyrimidin-4-yl)-1-methylpiperazin-2-one]",< 100
8,"CCCNc1nc(N(CCOC)CCOC)nc2c(N3CCN(C)C(=O)C3)nc(N(CCOC)CCOC)nc12 [Compound 214, 4-(2,6-bis(bis(2-methoxyethyl)amino)-8-(propylamino)pyrimido[5,4-d]pyrimidin-4-yl)-1-methylpiperazin-2-one]",100 to 500
9,"COCCN(CCOC)c1nc(N2CCN(C)C(=O)C2)c2nc(N(CCOC)CCOC)nc(NCC(C)C)c2n1 [Compound 215, 4-(2,6-bis(bis(2-methoxyethyl)amino)-8-(isobutylamino)pyrimido[5,4-d]pyrimidin-4-yl)-1-methylpiperazin-2-one]",100 to 500
10,"COCCN(CCOC)c1nc(N2CCN(C)C(=O)C2)c2nc(N(CCOC)CCOC)nc(N3CCN(c4ncn(C)n4)CC3)c2n1 [Compound 216, 4-(2,6-bis(bis(2-methoxyethyl)amino)-8-(4-(1-methyl-1H-1,2,4-triazol-3-yl)piperazin-1-yl)pyrimido[5,4-d]pyrimidin-4-yl)-1-methylpiperazin-2-one]",100 to 500
11,"COCCN(CCOC)c1nc(N2CCS(=O)(=O)CC2)c2nc(N(CCOC)CCOC)nc(N3CCN(c4ncn(C)n4)CC3)c2n1 [Compound 217, 4-(2,6-bis(bis(2-methoxyethyl)amino)-8-(4-(1-methyl-1H-1,2,4-triazol-3-yl)piperazin-1-yl)pyrimido[5,4-d]pyrimidin-4-yl)thiomorpholine 1,1-dioxide]",100 to 500
12,"CCCNc1nc(N(CCOC)CCOC)nc2c(N3CCN(c4ncn(C)n4)CC3)nc(N(CCOC)CCOC)nc12 [Compound 218, N2,N2,N6,N6-tetrakis(2-methoxyethyl)-8-(4-(1-methyl-1H-1,2,4-triazol-3-yl)piperazin-1-yl)-N4-propylpyrimido[5,4-d]pyrimidine-2,4,6-triamine]",100 to 500
13,"COCCN(CCOC)c1nc(N2CCN(c3ncn(C)n3)CC2)c2nc(N(CCOC)CCOC)nc(NCC(C)C)c2n1 [Compound 219, N4-isobutyl-N2,N2,N6,N6-tetrakis(2-methoxyethyl)-8-(4-(1-methyl-1H-1,2,4-triazol-3-yl)piperazin-1-yl)pyrimido[5,4-d]pyrimidine-2,4,6-triamine]",100 to 500
14,"COCCN(CCOC)c1nc(N2CCN(c3ncn(C)n3)CC2)c2nc(N(CCOC)CCOC)nc(NCc3cccc(F)c3)c2n1 [Compound 220, N4-(3-fluorobenzyl)-N2,N2,N6,N6-tetrakis(2-methoxyethyl)-8-(4-(1-methyl-1H-1,2,4-triazol-3-yl)piperazin-1-yl)pyrimido[5,4-d]pyrimidine-2,4,6-triamine]",< 100
15,"COCCN(CCOC)c1nc(N2CCN(c3ncn(C)n3)CC2)c2nc(N(CCOC)CCOC)nc(NCc3cccc(Cl)c3)c2n1 [Compound 221, N4-(3-chlorobenzyl)-N2,N2,N6,N6-tetrakis(2-methoxyethyl)-8-(4-(1-methyl-1H-1,2,4-triazol-3-yl)piperazin-1-yl)pyrimido[5,4-d]pyrimidine-2,4,6-triamine]",< 100
16,"COCCN(CCOC)c1nc(N2CCN(c3ncn(C)n3)CC2)c2nc(N(CCOC)CCOC)nc(NCc3cccc(OC)c3)c2n1 [Compound 222, N4-(3-methoxybenzyl)-N2,N2,N6,N6-tetrakis(2-methoxyethyl)-8-(4-(1-methyl-1H-1,2,4-triazol-3-yl)piperazin-1-yl)pyrimido[5,4-d]pyrimidine-2,4,6-triamine]",< 100
17,"COCCN(CCOC)c1nc(N2CCN(c3ncn(C)n3)CC2)c2nc(N(CCOC)CCOC)nc(NCc3cccc(OC(F)(F)F)c3)c2n1 [Compound 223, N2,N2,N6,N6-tetrakis(2-methoxyethyl)-8-(4-(1-methyl-1H-1,2,4-triazol-3-yl)piperazin-1-yl)-N4-(3-(trifluoromethoxy)benzyl)pyrimido[5,4-d]pyrimidine-2,4,6-triamine]",< 100
18,"COCCN(CCOC)c1nc(N2CCN(c3ncn(C)n3)CC2)c2nc(N(CCOC)CCOC)nc(NCc3cccc(C#N)c3)c2n1 [Compound 224, 3-(((2,6-bis(bis(2-methoxyethyl)amino)-8-(4-(1-methyl-1H-1,2,4-triazol-3-yl)piperazin-1-yl)pyrimido[5,4-d]pyrimidin-4-yl)amino)methyl)benzonitrile]",< 100
19,"COCCN(CCOC)c1nc(N2CCN(c3ncn(C)n3)CC2)c2nc(N(CCOC)CCOC)nc(NCc3ccc(F)c(C#N)c3)c2n1 [Compound 225, 5-(((2,6-bis(bis(2-methoxyethyl)amino)-8-(4-(1-methyl-1H-1,2,4-triazol-3-yl)piperazin-1-yl)pyrimido[5,4-d]pyrimidin-4-yl)amino)methyl)-2-fluorobenzonitrile]",< 100
20,"COCCN(CCOC)c1nc(N2CCN(c3ncn(C)n3)CC2)c2nc(N(CCOC)CCOC)nc(NCc3cccc(S(C)(=O)=O)c3)c2n1 [Compound 226, N2,N2,N6,N6-tetrakis(2-methoxyethyl)-8-(4-(1-methyl-1H-1,2,4-triazol-3-yl)piperazin-1-yl)-N4-(3-(methylsulfonyl)benzyl)pyrimido[5,4-d]pyrimidine-2,4,6-triamine]",100 to 500
21,"COCCN(CCOC)c1nc(N2CCN(c3ncn(C)n3)CC2)c2nc(N(CCOC)CCOC)nc(NCc3ccc(F)c(F)c3)c2n1 [Compound 227, N4-(3,4-difluorobenzyl)-N2,N2,N6,N6-tetrakis(2-methoxyethyl)-8-(4-(1-methyl-1H-1,2,4-triazol-3-yl)piperazin-1-yl)pyrimido[5,4-d]pyrimidine-2,4,6-triamine]",< 100
22,"COCCN(CCOC)c1nc(N2CCN(c3ncn(C)n3)CC2)c2nc(N(CCOC)CCOC)nc(NCc3cccc(S(N)(=O)=O)c3)c2n1 [Compound 228, 3-(((2,6-bis(bis(2-methoxyethyl)amino)-8-(4-(1-methyl-1H-1,2,4-triazol-3-yl)piperazin-1-yl)pyrimido[5,4-d]pyrimidin-4-yl)amino)methyl)benzenesulfonamide]",100 to 500
23,"COCCN(CCOC)c1nc(N2CCN(c3ncn(C)n3)CC2)c2nc(N(CCOC)CCOC)nc(NCc3cccc(C(N)=O)c3)c2n1 [Compound 229, 3-(((2,6-bis(bis(2-methoxyethyl)amino)-8-(4-(1-methyl-1H-1,2,4-triazol-3-yl)piperazin-1-yl)pyrimido[5,4-d]pyrimidin-4-yl)amino)methyl)benzamide]",100 to 500
24,"COCCN(CCOC)c1nc(N2CCN(C)C(=O)C2)c2nc(N(CCOC)CCOC)nc(N(C)Cc3ccccc3)c2n1 [Compound 230, 4-(8-(benzyl(methyl)amino)-2,6-bis(bis(2-methoxyethyl)amino)pyrimido[5,4-d]pyrimidin-4-yl)-1-methylpiperazin-2-one]",< 100
25,"COCCN(CCOC)c1nc(N2CCC(OC)CC2)c2nc(N(CCOC)CCOC)nc(N(C)Cc3cccc(OC(F)(F)F)c3)c2n1 [Compound 231, N2,N2,N6,N6-tetrakis(2-methoxyethyl)-8-(4-methoxypiperidin-1-yl)-N4-methyl-N4-(3-(trifluoromethoxy)benzyl)pyrimido[5,4-d]pyrimidine-2,4,6-triamine]",100 to 500
